Results: patent US20020082452A1, “alpha-sulfin-and alpha-sulfonamino acid amides” (priority 1998, published 2002)

Key:
Phytophthora [1] = assay: D-2: Action against Phytophthora on tomato plants (residual-protective and systemic action); type: in vivo; details: spray mixture 0.02% active ingredient (sprayed or watered), evaluated after 4-5 days at 90-100% relative humidity and 20° C.
Procedure: D-2: Action Against Phytophthora on Tomato Plants
(§1) a) Residual-Protective Action
(§2) After a cultivation period of 3 weeks, tomato plants are sprayed with a spray mixture (0.02% active ingredient) prepared from a wettable powder formulation of the test compound. After 48 hours, the treated plants are infected with a sporangia suspension of the fungus. Fungus infestation is evaluated after incubation of the infected plants for 5 days at 90-100% relative humidity and 20° C.
as §2, with “watered” for “sprayed”, “ingredient based on the volume of the soil)” for “ingredient)”, “compound. […]” for “compound.”, “96” for “48”, “4” for “5”, “C. […] Compounds A1.02, A1.03, A1.04, A1.03, A1.05, A1.06, A1.07, A1.09, A1.10, A1.13, A1.14, A1.15, A1.16, A1.21, A1.23.” for “C.”

Phytophthora [2] = assay: D-3: Action against Phytophthora on potato plants (residual-protective and systemic action); type: in vivo; details: potato plants (Bintje variety), spray mixture 0.02% active ingredient (sprayed or watered), evaluated after 4 days at 90-100% relative humidity and 20° C.
Procedure: D-3 Action Against Phytophthora on Potato Plants
as §1
(§3) 2-3 week old potato plants (Bintje variety) are sprayed with a spray mixture (0.02% active ingredient) prepared from a wettable powder formulation of the test compound. After 48 hours, the treated plants are infected with a sporangia suspension of the fungus. Fungus infestation is evaluated after incubation of the infected plants for 4 days at 90-100% relative humidity and 20° C.
as §3, with “watered” for “sprayed”, “ingredient based on the volume of the soil)” for “ingredient)”, “compound. […]” for “compound.”, “C. Fungal infestation is effectively controlled with compounds of Tables 1 to 37. Compounds A1.02, A1.03, A1.04, A1.03, A1.05, A1.06, A1.07, A1.09, A1.10, A1.13, A1.14, A1.15, A1.16, A1.21, A1.23.” for “C.”

Plasmopara viticola = assay: D-1: Action against Plasmopara viticola on vines (residual-protective and residual-curative action); type: in vivo; details: vine seedlings, spray mixture 0.02% active ingredient, evaluated after 6 days at 95-100% relative humidity and 20° C.
Procedure: D-1: Action against Plasmopara viticola on Vines a) Residual-Protective Action
Vine seedlings are sprayed at the 4- to 5-leaf stage with a spray mixture (0.02% active ingredient) prepared from a wettable powder formulation of the test compound. After 24 hours, the treated plants are infected with a sporangia suspension of the fungus. Fungus infestation is evaluated after incubation for 6 days at 95-100% relative humidity and 20° C. […]
b) Residual-Curative Action
Vine seedlings are infected at the 4- to 5-leaf stage with a sporangia suspension of the fungus. After incubation for 24 hours in a humidity chamber at 95-100% relative humidity and 20° C., the infected plants are dried and sprayed with a spray mixture (0.02% active ingredient) prepared from a wettable powder formulation of the test compound. After the spray coating has dried, the treated plants are placed in the humidity chamber again. Fungus infestation is evaluated 6 days after infection. […] Compounds A1.02, A1.03, A1.04, A1.03, A1.5, A1.06, A1.07, A1.09, A1.10, A1.13, A1.14, A1.15, A1.16, A1.21, A1.23.

| Structure (SMILES) | Fungus infestation (Phytophthora [1]) | Fungus infestation (Phytophthora [2]) | melting point | Fungus infestation (Plasmopara viticola) |
| --- | --- | --- | --- | --- |
| CCS(=O)(=O)N[C@H](C(=O)NCCc1ccc(OC/C=C\c2ccc(Cl)cc2)c(OC)c1)C(C)C [Compound A3.03, Z-(S)-N-(2-{4-[3-(4-Chloro-phenyl)-allyloxy]-3-methoxy-phenyl}-ethyl)-2-ethanesulfonylamino-3-methyl-butyramide] | completely inhibit fungal infestation | completely inhibit fungal infestation | 141 to 143 °C | completely inhibit fungal infestation |
| CCS(=O)(=O)N[C@H](C(=O)NCCc1ccc(OCCOc2ccc(F)cc2)c(OC)c1)C(C)C |  |  | 124 to 125 °C |  |
| CCS(=O)(=O)N[C@H](C(=O)NCCc1ccc(OCC=Cc2ccc(Cl)cc2)c(OC)c1)C1CCC1 [Compound A1.107] | completely inhibit fungal infestation | completely inhibit fungal infestation |  | completely inhibit fungal infestation |
| CCS(=O)(=O)N[C@H](C(=O)NCCc1ccc(OCCOc2cccc(C)c2)c(OC)c1)C(C)C [Compound A1.25] | completely inhibit fungal infestation | completely inhibit fungal infestation |  | completely inhibit fungal infestation |
